“And” between values parts separate entries of the source, which are not always exact repeats. Equal entries are not always repeated.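 Briefly, cells in 96-well plates were exposed to five compound concentrations for 48 h, and endpoints were estimated by linear interpolation. GI50 = concentration required for 50% inhibition of growth.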 The source made the active and inactive calls. Cut-off read from the data, not from the text of the source: active = GI50 up to about 1.1 µM and inactive = higher.
Key:
Test in all cases: NCI tumour cell line growth inhibition, 48 h
CAKI-1 = tested on: CAKI-1
SK-MEL-28 = tested on: SK-MEL-28
MDA-MB-231 = tested on: MDA-MB-231
SK-MEL-5 = tested on: SK-MEL-5
SF-268 = tested on: SF-268
PC-3 = tested on: PC-3
SNB-75 = tested on: SNB-75
OVCAR-4 = tested on: OVCAR-4
UACC-62 = tested on: UACC-62
A549 = tested on: A549
DU-145 = tested on: DU-145
CCRF-CEM = tested on: CCRF-CEM
SR = tested on: SR
T47D = tested on: T47D
SNB-19 = tested on: SNB-19
IGROV-1 = tested on: IGROV-1
SW-620 = tested on: SW-620
MOLT-4 = tested on: MOLT-4
NCI-H460 = tested on: NCI-H460
NCI/ADR-RES = tested on: NCI/ADR-RES

SMILES	GI50 (CAKI-1)	GI50 (SK-MEL-28)	GI50 (MDA-MB-231)	GI50 (SK-MEL-5)	GI50 (SF-268)	GI50 (PC-3)	GI50 (SNB-75)	GI50 (OVCAR-4)	GI50 (UACC-62)	GI50 (A549)	GI50 (DU-145)	GI50 (CCRF-CEM)	GI50 (SR)	GI50 (T47D)	GI50 (SNB-19)	GI50 (IGROV-1)	GI50 (SW-620)	GI50 (MOLT-4)	GI50 (NCI-H460)	GI50 (NCI/ADR-RES)
Cc1c(CCCl)c(Cl)n2c(nc3ccccc32)c1C#N	0.597 µM (active)	1.94 µM (inactive)	1.32 µM (inactive)	0.891 µM (active)	1.49 µM (inactive)	1.02 µM (active)	3.38 µM (inactive)	1.44 µM (inactive)	1.02 µM (active)	1.4 µM (inactive)	1.69 µM (inactive)	0.045 µM (active)	0.112 µM (active)	1.38 µM (inactive)	1.89 µM (inactive)	1.62 µM (inactive)	0.161 µM (active)	0.172 µM (active)	0.456 µM (active)	
O=c1[nH]nc(-c2ccccc2)n1-n1cnnc1	> 100 µM (inactive)		> 100 µM (inactive)	> 100 µM (inactive)	> 100 µM (inactive)	> 100 µM (inactive)	> 100 µM (inactive)	> 100 µM (inactive)	> 100 µM (inactive)	> 100 µM (inactive)		> 100 µM (inactive)	> 100 µM (inactive)	> 100 µM (inactive)	> 100 µM (inactive)	> 100 µM (inactive)	> 100 µM (inactive)	> 100 µM (inactive)	> 100 µM (inactive)	> 100 µM (inactive)
C=C1C(O)C23CCC4C(C(=O)O)(C(=O)O)CC(OC5OC(CO)C(O)C(OC(=O)CCc6ccccc6)C5NC(=O)CC(C)C)CC4(C)C2CCC1(O)C3 (stereo not given)	> 100 µM (inactive)	> 100 µM (inactive)	> 100 µM (inactive)	> 100 µM (inactive)	> 100 µM (inactive)	> 100 µM (inactive)	> 100 µM (inactive)	> 100 µM (inactive)	> 100 µM (inactive)	> 100 µM (inactive)	> 100 µM (inactive)	> 100 µM (inactive)	> 100 µM (inactive)	> 100 µM (inactive)	> 100 µM (inactive)	> 100 µM (inactive)	> 100 µM (inactive)	> 100 µM (inactive)	> 100 µM (inactive)	
Cc1ccc2nc3ccccc3c(C3C4C(=O)N(c5ccc(Br)cc5Cl)C(=O)C4ON3C(C(N)=O)c3ccccc3)c2c1 (stereo not given)	4.9 µM (inactive)	> 25 µM (inactive)	> 25 µM (inactive)	19.1 µM (inactive)	> 25 µM (inactive)	> 25 µM (inactive)	> 25 µM (inactive)	19.7 µM (inactive)	7.93 µM (inactive)	> 25 µM (inactive)	> 25 µM (inactive)	8.13 µM (inactive)	7.26 µM (inactive)	> 25 µM (inactive)	> 25 µM (inactive)	16.7 µM (inactive)	> 25 µM (inactive)	8.73 µM (inactive)	> 25 µM (inactive)	
CCc1ccccc1NC(=O)C(=O)CC(=O)c1sc(Nc2ccccc2Cl)nc1C	46.1 µM (inactive)	36 µM (inactive)	27 µM (inactive)	17.6 µM (inactive)	66.4 µM (inactive)	26.9 µM (inactive)		36.8 µM (inactive)	> 100 µM (inactive)	24 µM (inactive)	55.1 µM (inactive)	18 µM (inactive)		35.7 µM (inactive)	39.1 µM (inactive)	40 µM (inactive)	25.6 µM (inactive)	14.9 µM (inactive)	21.2 µM (inactive)	25.8 µM (inactive)
O=C(NCCCN(CCCCN(CCCNC(=O)C(F)(F)F)Cc1ccccc1)Cc1ccccc1)C(F)(F)F	13.6 µM (inactive)	12.6 µM (inactive)	17.5 µM (inactive)	3.39 µM (inactive)	12.5 µM (inactive)		12.6 µM (inactive)	16.8 µM (inactive)	16.9 µM (inactive)	24.2 µM (inactive)	19.7 µM (inactive)	16.2 µM (inactive)		17.7 µM (inactive)	13.7 µM (inactive)	13.4 µM (inactive)	16.5 µM (inactive)	14.7 µM (inactive)	10.4 µM (inactive)	14.7 µM (inactive)
C/C(=C\COP(=O)(O)OP(=O)(O)O)CCCCCCOCc1ccccc1	> 100 µM (inactive)	> 100 µM (inactive)	> 100 µM (inactive)	> 100 µM (inactive)	> 100 µM (inactive)		> 100 µM (inactive)	> 100 µM (inactive)	> 100 µM (inactive)	> 100 µM (inactive)	> 100 µM (inactive)	> 100 µM (inactive)	> 100 µM (inactive)	> 100 µM (inactive)	> 100 µM (inactive)	> 100 µM (inactive)	> 100 µM (inactive)	> 100 µM (inactive)	> 100 µM (inactive)	> 100 µM (inactive)
COc1cccc2c1CCc1sc(CN3CCN(C)CC3)nc1-2	> 100 µM (inactive)	49.7 µM (inactive)	85.7 µM (inactive)	28.1 µM (inactive)	> 100 µM (inactive)	44.8 µM (inactive)	> 100 µM (inactive)	> 100 µM (inactive)	26.2 µM (inactive)	> 100 µM (inactive)	> 100 µM (inactive)	24.9 µM (inactive)		33.8 µM (inactive)	> 100 µM (inactive)	> 100 µM (inactive)	> 100 µM (inactive)	22.4 µM (inactive)	54.7 µM (inactive)	> 100 µM (inactive)
Cc1cc(C)n2c(nc3ccccc32)c1C#N	> 100 µM (inactive)	> 100 µM (inactive)	69.2 µM (inactive)	55.7 µM (inactive)		> 100 µM (inactive)		10.8 µM (inactive)	> 100 µM (inactive)	> 100 µM (inactive)	> 100 µM (inactive)	> 100 µM (inactive)		> 100 µM (inactive)	> 100 µM (inactive)	> 100 µM (inactive)	> 100 µM (inactive)	93.8 µM (inactive)	> 10 µM (inactive)	> 100 µM (inactive)
COC1OC(COC(=O)NCCCCC(=O)C(F)(F)C(F)(F)C(F)(F)C(F)(F)C(F)(F)C(F)(F)C(F)(F)F)C(O)C(O)C1O (stereo not given)	16.4 µM (inactive) and 17.2 µM (inactive)	17.3 µM (inactive) and 16.7 µM (inactive)	23.1 µM (inactive) and 23.9 µM (inactive)	13.1 µM (inactive) and 12 µM (inactive)	15.7 µM (inactive) and 18.2 µM (inactive)	12.9 µM (inactive) and 13.6 µM (inactive)	14.4 µM (inactive) and 15.8 µM (inactive)	15 µM (inactive) and 16.7 µM (inactive)	13.7 µM (inactive) and 14.4 µM (inactive)	17.9 µM (inactive) and 15.6 µM (inactive)			30.3 µM (inactive) and 42.9 µM (inactive)	19.6 µM (inactive) and 15.2 µM (inactive)	17.8 µM (inactive) and 17.9 µM (inactive)	16.5 µM (inactive) and 14.3 µM (inactive)	17.1 µM (inactive) and 15.8 µM (inactive)		22.4 µM (inactive) and 16.8 µM (inactive)	34.5 µM (inactive) and 28.4 µM (inactive)
CC(=O)CCC(=O)CC(O)(C(F)(F)F)C(F)(F)F		22.7 µM (inactive)	19.2 µM (inactive)	18.1 µM (inactive)	22.3 µM (inactive)		27.5 µM (inactive)	19.7 µM (inactive)	16.8 µM (inactive)	20.6 µM (inactive)	20.5 µM (inactive)	21.6 µM (inactive)	16.4 µM (inactive)	11.4 µM (inactive)	15.9 µM (inactive)	15.4 µM (inactive)	21.6 µM (inactive)	17.9 µM (inactive)	20.7 µM (inactive)	25.3 µM (inactive)
CCOC(=O)c1cc(I)c(-c2cc(C)no2)n1C	20.3 µM (inactive)	> 100 µM (inactive)	36 µM (inactive)	33.1 µM (inactive)	60.1 µM (inactive)	38.5 µM (inactive)	49.8 µM (inactive)	21.8 µM (inactive)	59 µM (inactive)	61.7 µM (inactive)	89.9 µM (inactive)	27.9 µM (inactive)		32.2 µM (inactive)	> 100 µM (inactive)		60.7 µM (inactive)	21.2 µM (inactive)	76.7 µM (inactive)	36.2 µM (inactive)
CC1(C)O[C@@H]([C@@H](O)[C@H](O)C2SCCCS2)[C@@H](CO)O1	> 100 µM (inactive)	> 100 µM (inactive)	> 100 µM (inactive)	> 100 µM (inactive)	> 100 µM (inactive)	> 100 µM (inactive)	> 100 µM (inactive)		> 100 µM (inactive)	> 100 µM (inactive)	> 100 µM (inactive)	> 100 µM (inactive)		> 100 µM (inactive)	> 100 µM (inactive)	> 100 µM (inactive)	> 100 µM (inactive)	> 100 µM (inactive)	> 100 µM (inactive)	> 100 µM (inactive)
O=C1N/C(=N/N=C/C(O)C(O)C(O)CO)N/C1=C\c1c[nH]c2ccccc12 (stereo not given)	> 100 µM (inactive)	> 100 µM (inactive)	> 100 µM (inactive)	> 100 µM (inactive)	> 100 µM (inactive)		> 100 µM (inactive)	> 100 µM (inactive)	> 100 µM (inactive)	> 100 µM (inactive)	> 100 µM (inactive)	41.7 µM (inactive)		> 100 µM (inactive)	1.93 µM (inactive)	> 100 µM (inactive)	> 100 µM (inactive)	> 100 µM (inactive)	> 100 µM (inactive)	> 100 µM (inactive)

— ChEMBL document CHEMBL1201862, “PubChem BioAssay data set” (2004)
